According to patent publication US20210015830A1, “COMPOSITION FOR INHIBITING REACTIVE OXYGEN SPECIES PRODUCTION” (SUNTORY HOLDINGS LIMITED, priority 2017, published 2021):
Like-named read-outs stand apart in the source and are kept apart here.

Key:
[1] = molecular target: T1, NADPH oxidase (NOX) (Homo sapiens, UniProt P04839); assay: Measurement of NOX inhibitory activity in differentiated HL-60 cells (PMA-activated superoxide production, WST-1 formazan absorbance at 450 nm); type: cell-based; conditions: for Inhibitory activity ratio: 3-acetyl triterpenic acid versus the triterpenic acid without acetyl group, formula (i)
T1 construct: HL-60 cells were differentiated into NOX-expressing granulocytes; endogenous in cells; host or cells: HL-60 cells differentiated into granulocytes with 1% DMSO
T1 sequence (P04839 1-570): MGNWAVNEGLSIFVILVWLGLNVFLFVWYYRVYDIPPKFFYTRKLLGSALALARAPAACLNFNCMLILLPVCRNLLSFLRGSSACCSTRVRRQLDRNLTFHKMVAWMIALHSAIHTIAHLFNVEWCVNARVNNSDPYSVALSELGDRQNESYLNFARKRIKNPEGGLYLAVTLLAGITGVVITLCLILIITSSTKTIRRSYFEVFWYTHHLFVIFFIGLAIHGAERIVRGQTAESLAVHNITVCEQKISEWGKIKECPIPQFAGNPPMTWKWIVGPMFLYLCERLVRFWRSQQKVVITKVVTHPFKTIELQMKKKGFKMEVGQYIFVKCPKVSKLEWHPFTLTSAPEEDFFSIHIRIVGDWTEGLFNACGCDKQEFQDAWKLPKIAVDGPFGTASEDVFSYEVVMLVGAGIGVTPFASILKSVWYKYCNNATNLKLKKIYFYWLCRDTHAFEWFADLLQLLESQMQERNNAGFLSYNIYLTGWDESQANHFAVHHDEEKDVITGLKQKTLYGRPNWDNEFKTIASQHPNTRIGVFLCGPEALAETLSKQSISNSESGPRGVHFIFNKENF
T1 sequence (P13498 1-195 partner): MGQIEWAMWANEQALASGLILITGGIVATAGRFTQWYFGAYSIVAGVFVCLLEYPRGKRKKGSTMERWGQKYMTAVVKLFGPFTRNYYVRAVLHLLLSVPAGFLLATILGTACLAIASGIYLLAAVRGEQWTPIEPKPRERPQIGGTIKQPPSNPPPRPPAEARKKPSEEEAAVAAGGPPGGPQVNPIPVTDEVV
Text: It is known that undifferentiated human myeloid leukemia HL-60 cells have an ability to proliferate, but differentiate into mature granulocytes by adding DMSO (dimethyl sulfoxide), retinoic acid, or the like and lose their proliferative ability. Mature HL-60 cells express NOX that serves as an indicator of differentiation. NOX can be used as an indicator for evaluating NOX inhibitory activity.
HL-60 cells were differentiated into NOX-expressing granulocytes by the following method.
Then, the suspension was dispensed into cell culture dishes (100 mm) so as to be 15 mL each, and the cells were cultured in a CO2 incubator (37° C.) for 3 days.
The differentiated HL-60 cells were used to measure NOX inhibitory activity as will be described below.
WST-1 (2-(4-iodophenyl)-3-(4-nitrophenyl)-5-(2,4-disulfophenyl)-2H-tetrazolium, monosodium salt) was dissolved in a D-MEM medium so as to be 0.8 mg/mL, and thus a WST-1 solution was prepared. WST-1 reacts with superoxide and produces yellow formazan. Yellow formazan absorbs a wavelength of 450 nm, and, therefore, the amount of yellow formazan can be measured by measuring absorbance at a wavelength of 450 nm. Also, the amount of yellow formazan produced is proportional to the amount of superoxide during the reaction, and, therefore, the amount of superoxide can be measured by measuring the amount of yellow formazan produced.
PMA (phorbol 12-myristate 13-acetate) was dissolved in a D-MEM medium so as to be 4 μM, and thus a PMA solution was prepared.
PMA is known to function to activate NOX and causes superoxide production.
The differentiated HL-60 cells were collected by centrifugation, and suspended in a D-MEM medium containing neither FBS nor phenol red so as to be 5×10^6 cells/mL.
The cell suspension was added into a 96-well microplate so as to be 25 μL per well.
Next, 25 μL of the WST-1 solution prepared as described above was added to the wells.
After adding the solutions, the cell suspensions were stirred.
Thereafter, 25 μL of the prepared PMA solution was added (a final PMA concentration in the medium being 1 μM) to activate NOX and carry out a reaction at 37° C. for 60 minutes.
Then, by measuring absorbance at a wavelength of 450 nm, the amount of yellow formazan produced and thus the amount of superoxide produced by NOX were measured.
Inhibitory activity ratio=(IC50 of triterpenic acid having acetyl group)/(IC50 of triterpenic acid without acetyl group) (i)
Based on the obtained measurement results, the IC50 (μg/mL) of fraction 1 and fraction 2 was determined.
Moreover, the inhibitory activity ratio of triterpenic acid having an acetyl group in fraction 2 to triterpenic acid without an acetyl group in fraction 1 was calculated using formula (i).

[2] = tested on: Senescent Accelerated Model Prone 10 (SAMP10) mouse; assay: Brain function evaluation by passive avoidance test (step-through test) in senescence accelerated model; type: in vivo; conditions: SAMP10 mice, AIN-93M containing 0.006% ursolic acid or 0.002% acetylursolic acid for 12 weeks, evaluated at 11 months old
Procedure: The effect of inhibiting a decline in brain function of the Aronia extract was evaluated using the extract powder obtained in Example 2. The Senescent Accelerated Model Prone 10 (SAMP10) mouse, which is one of the senescence accelerated models, is known to show age-related decline in brain function at an early stage, and can be used to evaluate effects on an age-related decline in brain function. Accordingly, this animal was used to investigate the brain function ameliorating effect of the Aronia extract. A series of animal experiments were carried out based on a plan that complies with the animal welfare management law and other relevant laws and that is approved by the head of an organization after being reviewed by an institutional animal experiment committee.
(§1) As for a young (young control) group, SAMP10 mice at 8 weeks old were purchased, acclimated for 7 days, and received AIN-93M (manufactured by CLEA Japan Inc.) as a base food for 12 weeks, and then the brain function was evaluated at 4 months old (N=15). As for an elderly group, mice at 14 weeks old were purchased, acclimated until 8 months old, randomly divided into 2 groups, received AIN-93M or AIN-93M containing 0.02% Aronia extract for 12 weeks, and then the brain function was evaluated at 11 months old (an elderly control group (N=26), an elderly Aronia received group (N=18)). The food was changed once a week, and the food intake and the body weight were measured once a week.
A brain function was evaluated using a passive avoidance test (a step-through test). […]
Mice were placed in a light room (9 cm width, 11.5 cm depth, 15 cm height) of a step-through passive avoidance response tester (manufactured by Muromachi Kikai Co., Ltd.), then a door to a dark room (14 cm width, 17.5 cm depth, 15 cm height) was opened 30 seconds later, and the time until the mice entered the dark room (the light room latency) was measured. […]
A retention trial was performed the day after the acquisition trial. The same operation as the acquisition trial was performed on the mice, and the latency in light room was measured. […] The latency was measured up to 300 seconds, and evaluations were made such that the longer the latency of the retention trial is, the higher the memory function is.
The brain function ameliorating effects of ursolic acid and acetylursolic acid contained in Aronia were compared in terms of the recovery of light room latency. […] When the mice reached 11 months old, a brain function was evaluated according to the method of Reference Example 1 (0.006% ursolic acid received group (N=8), and 0.002% acetylursolic acid received group (N=10)).

[3] = Body weight and food intake of SAMP10 mice during 12-week feeding; type: in vivo, mouse; conditions: AIN-93M containing 0.006% ursolic acid or 0.002% acetylursolic acid for 12 weeks
Procedure: as §1
The brain function ameliorating effects of ursolic acid and acetylursolic acid contained in Aronia were compared in terms of the recovery of light room latency. SAMP10 mice at 14 weeks old were purchased, acclimated until 8 months old, then randomly divided into two groups, and received AIN-93M containing 0.006% ursolic acid or AIN-93M containing 0.002% acetylursolic acid for 12 weeks. When the mice reached 11 months old, a brain function was evaluated according to the method of Reference Example 1 (0.006% ursolic acid received group (N=8), and 0.002% acetylursolic acid received group (N=10)).

[4] = standard products, differentiated HL-60 cells, 1 μM PMA, 37° C., 60 minutes, read-out: IC50

Row | Compound | IC50 [1] [µM] | Inhibitory activity ratio [1] [times] | IC50 [1, 4] [µM] | latency in light room, acquisition trial [2] | latency in light room, retention trial [2] | body weight and food intake [3]
1 | CC(=O)O[C@H]1CC[C@]2(C)[C@H]3CC=C4[C@@H]5CC(C)(C)CC[C@]5(C(=O)O)CC[C@@]4(C)[C@]3(C)CC[C@H]2C1(C)C [3-Acetyloleanolic acid] | 10 | 4.4 |  |  |  | 
2 | CC(=O)O[C@H]1CC[C@]2(C)[C@H]3CC=C4[C@@H]5[C@@H](C)[C@H](C)CC[C@]5(C(=O)O)CC[C@@]4(C)[C@]3(C)CC[C@H]2C1(C)C [3-Acetylursolic acid] |  | 7.3 | 6 | no difference between groups | stronger effect on ameliorating brain function than ursolic acid | 
3 | C[C@H]1[C@H](C)CC[C@]2(C(=O)O)CC[C@]3(C)C(=CC[C@@H]4[C@@]5(C)CC[C@H](O)C(C)(C)[C@@H]5CC[C@]43C)[C@H]12 [Ursolic acid, reference compound] |  |  | 44 | no difference between groups | act to inhibit an age-related decline in brain function | no difference
